Experiment [1] relates to DBA (free dopamine binding aptamer) (DNA, aptamer) CGACGCCAGTTTGAAGGTTCGTTCGCAGGTGTGGAGTGACGTCG
The note with it: conditions not stated.

For experiment [2], the system named is aptananozyme V (amino-DBA with (TGTA)3 spacer (5) on Ce4+-ion-modified C-dots) (DNA, aptamer) TGTATGTATGTACGACGCCAGTTTGAAGGTTCGTTCGCAGGTGTGGAGTGACGTCG
The experiment is described as follows: ITC. The note with it: 100 mM NaCl, 5 mM MgCl2; 5 mM MES pH 5.5; aptamer immobilised on Ce4+-C-dots; 20 µM aptananozyme, 600 µM dopamine titrant.

For experiment [3], the system named is aptananozyme III (amino-DBA with (TGTA) spacer (3) on Ce4+-ion-modified C-dots) (DNA, aptamer) TGTACGACGCCAGTTTGAAGGTTCGTTCGCAGGTGTGGAGTGACGTCG
The experiment is described as follows: ITC. The note with it: 100 mM NaCl, 5 mM MgCl2; 5 mM MES pH 5.5; aptamer immobilised on Ce4+-C-dots; 20 µM aptananozyme, 600 µM dopamine titrant.

For experiment [4], the system named is aptananozyme IV (amino-DBA with (TGTA)2 spacer (4) on Ce4+-ion-modified C-dots) (DNA, aptamer) TGTATGTACGACGCCAGTTTGAAGGTTCGTTCGCAGGTGTGGAGTGACGTCG
The experiment is described as follows: ITC. The note with it: 100 mM NaCl, 5 mM MgCl2; 5 mM MES pH 5.5; aptamer immobilised on Ce4+-C-dots; 20 µM aptananozyme, 600 µM dopamine titrant.

Usually Kd stands for the constant that tells how readily two partners part at equilibrium. Take `NCCc1ccc(O)c(O)c1`: the Kd in experiment [1] amounted to 720 ± 30 nM; in experiment [2], 910 ± 100 nM; in experiment [3], 950 ± 30 nM; in experiment [4] it was 880 ± 40 nM.

The values are drawn from paper PMC9782376 (2022).
